Results: patent US11427595B2, “Compositions and methods for inhibiting viral infection” (Trustees of Boston University, priority 2018, dated 2022)
Where two headings read alike, the source gives them in different places.

Experiments:
JFH-1 HCVcc-Luc = test: microbe, parasite or virus in culture; type: cell-based, Hepatitis C virus; conditions: for EC50: Hepatitis C virus, Huh-7.5.1, read-out: EC50, inhibition of HCV infection; for inhibition of HCV infection (in words): Huh7.5.1 cells, comparisons are to aglaroxin C (6)
Huh7.5.1 cells [1] = test: Cytotoxicity, CellTiter-Glo Cell Viability Luminescent Assay; type: cell-based, human
Experimental: (§1) To determine the […] of each compound, Huh7.5.1 cells were treated with compounds or DMSO at indicated doses for 3 h in 96-well plates. After removal of compounds, cells were further incubated for 72 h prior to the viability assay. The numbers of viable cells in culture were determined using the CellTiter-Glo Cell Viability Luminescent Assay kit according to the manufacturer's instruction (Promega). Percentages of toxicity were calculated using the formulas: 100-percentage of vial cells relative to that from the dimethyl sulfoxide (DMSO) treated group (100%) (n=3) (FIG. 20-FIG. 57).

Huh7.5.1 cells [2] = test: MTS cell viability assay; type: cell-based, human; conditions: 3 h treatment, 72 h incubation
Excerpt: In this comparison, niclosamide was used as a positive control, which is known as HCV inhibitor (unclear mechanisms). Data from CellTiter-Glo assay was obtained from separate experiments conducted on a different date.
MTS (3-(4,5-dimethylthiazol-2-yl)-5-(3-carboxymethoxyphenyl)-2-(4-sulfophenyl)-2H-tetrazolium)) assay is a colorimetric assay used to determine the mitochondrial metabolic rate by quantifying the reduced formazan product of MTS in cells to reflect viable cells. To determine the CC50 of each compound, Huh7.5.1 cells were treated with compounds or DMSO at indicated doses for 3 h in 96-well plates. After removal of compounds, cells were further incubated for 72 h prior to conducting the viability assay. The MTS assay in this study is accordance with a protocol provided by manufacturer (Promega, Madison, Wis. USA). One-fifth volume of MTS reagent was added into the culture supernatant at indicated time points. Plates were incubated at 37° C. for 3 hours with 5% CO2 followed by measuring the absorbance at 490 nanometers (nm) with an ELISA reader (SpectraMax Plus 385, Molecular Devices, USA). Percentages of toxicity were calculated using the formulas: 100-percentage of vial cells relative to that from the dimethyl sulfoxide (DMSO) treated group (100%) (n=3) (FIG. 68-FIG. 71).

[3] = test system: HCV replicon cell line 2-3+ (full-length HCV Genotype 1b RNA genome); test: HCV replicon system: viral RNA replication and protein synthesis; type: cell-based, Hepatitis C virus; conditions: 2 μM for 3 h; for HCV RNA replication: viral RNA by real-time PCR after 48 or 72 h; for HCV protein synthesis (translation): NS5 by Western blotting after 48 or 72 h
Experimental: HCV replicon cell line 2-3+ was treated with the indicated compounds for 3 h. Cells were incubated for an additional 48 hours (FIG. 10A and FIG. 10C) or 72 hours (FIG. 10B and FIG. 10D). Cellular RNA or protein was isolated for quantifications of HCV viral RNA by real-time PCR (FIG. 10A and FIG. 10B) or […] NS5 by Western blotting (FIG. 10C and FIG. 10D).
Next, the ability of the aglaroxin C analogues to inhibit HCV RNA replication and mRNA translation was investigated using an HCV replicon system which harbors a full-length HCV Genotype 1b RNA genome. In replicon cells, HCV RNA replicates and is translated into viral proteins without forming infectious viruses. […] To corroborate these findings, an in vitro translation inhibition assay was assembled where a bicistronic reporter mRNA was programmed for translation in Krebs-2 extracts FIG. 11A-11B.
Cells and Antibodies. The human liver cell line Huh7.5.1 was provided by Scripps Research Institute. The full-length HCV Genotype 1b-replicon-containing cell line 2-3(+) was a gift from University of North Carolina, Chapel Hill, N.C. The Aedes albopictus cell line C6/36 was purchased from American Type Culture Collection (ATCC) (CRL-1660). All cell lines were maintained in DMEM supplemented with 5% penicillin and streptomycin, 1% NEAA, and 10% fetal bovine serum (FBS) (Gemini Bio-Products). The β-actin antibody (clone AC-74) was purchased from Sigma. The HCV NS5A monoclonal antibody 9E10 was a gift from Rockefeller University. Secondary antibodies were purchased from Jackson ImmunoResearch Laboratories, Inc, and Molecular Probes (Invitrogen). Primer sequences are: Dengue 16681: F: 5′-[…]-3′ (SEQ ID NO: 3); R: 5′-[…]-3′ (SEQ ID NO: 4). GAPDH: F: 5′-[…]-3′ (SEQ ID NO: 5); R: 5′-[…]-3′ (SEQ ID NO: 6).

[4] = test system: cap-dependent Firefly luciferase (FLuc) translation; test: In vitro translation of bicistronic FF/HCV/Ren mRNA in Krebs-2 extracts, cap-dependent; type: biochemical; conditions: 1 μM, relative to DMSO
Excerpt: (§2) In this system, Firefly luciferase (FLuc) translation is cap-dependent whereas Renilla luciferase (RLuc) expression HCV-IRES dependent. […] Results are presented relative to values obtained in the presence of DMSO ad expressed as mean±error of two biological replicates.
(§3) In this system, translation of the Firefly luciferase (FLuc) translation is cap-dependent whereas Renilla luciferase (RLuc) translation is dependent upon the HCV internal ribosome entry site (IRES) FIG. 11A.
(§4) In vitro transcriptions and translations were performed as described previously. Plasmid encoding the bicistronic FF/HCV/Ren open reading frame was linearized with BamHI and m^7Gppp-capped mRNA was produced by in vitro transcription reactions using SP6 RNA polymerase. In vitro translation reactions were performed with S10 extracts prepared from Kreb-2 cells and programmed with 4 ng/uL of in vitro transcribed mRNA. Firefly (FF) and Renilla (Ren) luciferase activities were measured on a Berthold Lumat LB9507 Luminometer and values normalized against vehicle control, which was set at 1.

[5] = test system: HCV internal ribosome entry site (IRES)-dependent Renilla luciferase (RLuc) translation; test: In vitro translation of bicistronic FF/HCV/Ren mRNA in Krebs-2 extracts, HCV IRES-dependent; type: biochemical, Hepatitis C virus; conditions: 1 μM, relative to DMSO
Excerpt: as §2, §3, §4

HCVpp = type: cell-based, Hepatitis C virus; conditions: Huh7.5.1 cells, racemates and single (+)-enantiomers, 1 μM or 2 μM for 3 h, luciferase after 48 h
CHIKVpp = type: cell-based, Chikungunya virus; conditions: Huh7.5.1 cells, racemates and single (+)-enantiomers, 1 μM or 2 μM for 3 h, luciferase after 48 h
Ebolapp = type: cell-based, Ebola virus
VSVpp = type: cell-based, vesicular stomatitis virus
HCVcc-Luc = test: HCVcc time-of-addition assay; type: cell-based, Hepatitis C virus; conditions: Huh7.5.1 cells, 0.5 μM for 3 h, luciferase after 48 h
[6] = test system: Dengue virus (serotype 2, Thailand 16681 strain); type: cell-based; conditions: Huh7.5.1 cells, MOI 0.1, 2 μM for 3 h, viral RNA 48 h post-infection normalized against GAPDH
[7] = test system: OHFV viral envelope protein-mediated entry; type: cell-based, Omsk Hemorrhagic Fever Virus (OHFV)
[8] = test system: JEV viral envelope protein-mediated entry; type: cell-based, Japanese encephalitis virus; conditions: Huh7.5 cells, FIG. 73C
[9] = test system: WNV viral envelope protein-mediated entry; type: cell-based, West Nile virus; conditions: Huh7.5 cells, FIG. 73C
[10] = test system: Denv viral envelope protein-mediated entry; type: cell-based, Dengue virus; conditions: Huh7.5 cells, FIG. 73C
[11] = test system: Zika viral envelope protein-mediated entry; type: cell-based, Zika virus; conditions: Huh7.5 cells, FIG. 73C
translation = conditions: previous studies; cited from earlier work
[12] = Cytotoxicity, CellTiter-Glo Cell Viability Luminescent Assay; type: cell-based, human; conditions: human; Huh7.5.1 cells, 3 h treatment, viability after 72 h; concentration giving 50% cell death
Experimental: as §1

[13] = test system: hepatitis C viral (HCV) entry into host cells; conditions: separate earlier studies; cited from earlier work
[14] = test system: Dengue virus (serotype 2, Thailand 16681 strain); conditions: comparison named in the text, no data shown; cited from earlier work

## COc1ccc([C@@]23Oc4cc(OC)cc(OC)c4[C@]2(O)c2nc(-c4ccc(C)cc4)[nH]c(=O)c2[C@H]3c2ccccc2)cc1 (racemic) [12l, (5R,5aR,10bS)-10b-Hydroxy-8,10-dimethoxy-5a-(4-methoxyphenyl)-5-phenyl-2-(p-tolyl)-3,5,5a,10b-tetrahydro-4H-benzofuro[2′,3′:4,5]cyclopenta[1,2-d]pyrimidin-4-one]
JFH-1 HCVcc-Luc
  EC50: ~500 nM
  inhibition of HCV infection (in words): three-fold greater inhibition
Huh7.5.1 cells [1]
  AUC0.2-200, area under the cytotoxicity curve (in words): relatively lower cytotoxicities
Huh7.5.1 cells [2]
  toxicity curve in MTS assay compared with CellTiter-Glo assay: nearly identical toxicity curves
[3]
  HCV RNA replication: neither inhibit HCV RNA replication
[4]
  translation inhibition of firefly luciferase (cap-dependent): minimal
[5]
  HCV mRNA (IRES-dependent) translation: not inhibited
HCVpp
  inhibition of HCVpp infection: specifically inhibited
CHIKVpp
  inhibition of CHIKVpp infection: specifically inhibited
Ebolapp
  inhibition of Ebolapp infection: not
VSVpp
  inhibition of VSVpp infection: not
HCVcc-Luc
  anti-HCV activity when added 3 h after infection was initiated: partially lost their activity
  anti-HCV activity when added together with the virus: maximal anti-HCV activity

## COc1ccc([C@@]23Oc4cc(OC)cc(OC)c4[C@]2(O)c2nc(-c4cccc(OC)c4)[nH]c(=O)c2[C@H]3c2ccccc2)cc1 (racemic) [12s, (5R,5aR,10bS)-10b-Hydroxy-8,10-dimethoxy-2-(3-methoxyphenyl)-5a-(4-methoxyphenyl)-5-phenyl-3,5,5a,10b-tetrahydro-4H-benzofuro[2′,3′:4,5]cyclopenta[1,2-d]pyrimidin-4-one]
JFH-1 HCVcc-Luc
  EC50: ~500 nM
  inhibition of HCV infection (in words): three-fold greater inhibition
Huh7.5.1 cells [1]
  AUC0.2-200, area under the cytotoxicity curve (in words): relatively lower cytotoxicities
[3]
  HCV RNA replication: neither inhibit HCV RNA replication
[4]
  translation inhibition of firefly luciferase (cap-dependent): minimal
[5]
  HCV mRNA (IRES-dependent) translation: not inhibited
HCVpp
  inhibition of HCVpp infection: specifically inhibited
CHIKVpp
  inhibition of CHIKVpp infection: specifically inhibited
Ebolapp
  inhibition of Ebolapp infection: not
VSVpp
  inhibition of VSVpp infection: not
HCVcc-Luc
  anti-HCV activity when added 3 h after infection was initiated: partially lost their activity
  anti-HCV activity when added together with the virus: maximal anti-HCV activity
HCVcc-Luc; listed as (±)-12s
  anti-HCV activity when added together with the virus: inhibited HCV infection

## COc1ccc([C@@]23Oc4cc(OC)cc(OC)c4[C@]2(O)c2nc(-c4ccc(C)cc4)[nH]c(=O)c2[C@H]3c2ccccc2)cc1 [(+)-12l]
JFH-1 HCVcc-Luc
  inhibition of HCV infection (in words): displayed HCV inhibition
Huh7.5.1 cells [1]; Huh7.5.1 cells
  maximum cytotoxicity plateau compared to racemic counterparts: increased substantially
[3]
  HCV protein synthesis (translation): did not inhibit
  HCV RNA replication: did not inhibit
[6]
  inhibition of Dengue virus infection: inhibited Dengue virus infection
HCVcc-Luc
  anti-HCV activity when added together with the virus: inhibited HCV infection

## COc1ccc([C@@]23Oc4cc(OC)cc(OC)c4[C@]2(O)c2nc(-c4cccc(OC)c4)[nH]c(=O)c2[C@H]3c2ccccc2)cc1 [(+)-12s]
JFH-1 HCVcc-Luc
  inhibition of HCV infection (in words): displayed HCV inhibition
Huh7.5.1 cells [1]; Huh7.5.1 cells
  maximum cytotoxicity plateau compared to racemic counterparts: increased substantially
[3]
  HCV protein synthesis (translation): did not inhibit
  HCV RNA replication: did not inhibit
[6]
  inhibition of Dengue virus infection: inhibited Dengue virus infection

## COc1ccc([C@@]23Oc4cc(OC)cc(OC)c4[C@]2(O)C2=C(C(=O)N4CCC[C@H]4N2)[C@H]3c2ccccc2)cc1 [compound 5, aglaiastatin]
[7]
  % infection, OHFV envelope: under 1%
[8]
  % infection, JEV envelope: under 1%
[9]
  % infection, WNV envelope: under 1%
[10]
  % infection, Denv envelope: under 1%
[11]
  % infection, Zika envelope: under 1%
translation
  translation inhibition (in words): promising translation inhibitor

## COc1ccc([C@@]23Oc4cc(OC)cc(OC)c4[C@]2(O)c2nc4n(c(=O)c2[C@H]3c2ccccc2)CCC4)cc1 [compound 6, Aglaroxin C, reference compound]
JFH-1 HCVcc-Luc
  EC50: 1300 nM
[12]
  CC50: 12 µM
Huh7.5.1 cells [1]; Huh7.5.1 cells, comparisons are to aglaroxin C (6)
  cytotoxicity (in words): plateauing of cytotoxicity
[3]
  HCV RNA replication: neither inhibit HCV RNA replication
[4]
  translation inhibition of firefly luciferase (cap-dependent): minimal
[5]
  HCV mRNA (IRES-dependent) translation: not inhibited
HCVcc-Luc
  anti-HCV activity when added 3 h after infection was initiated: partially lost their activity
  anti-HCV activity when added together with the virus: maximal anti-HCV activity
translation
  translation inhibition (in words): only moderate translation inhibition
[13]
  concentration inhibiting HCV entry into host cells: low μM concentration

## COc1ccc([C@@]23Oc4cc(OC)cc(OC)c4[C@]2(O)[C@H](O)[C@H](C(=O)N(C)C)[C@H]3c2ccccc2)cc1 [rocaglamide]
[14]
  inhibition of Dengue virus infection: inhibited Dengue virus infection
